Laboratory results as given in article PMC6934184, “Selective DNA-PKcs inhibition extends the therapeutic index of localized radiotherapy and chemotherapy” (The Journal of Clinical Investigation, 2019).

Target: T1, EPHA8 (Homo sapiens, UniProt P29322)
T1 construct: purchased Thermo Fisher Scientific (Life Technologies) SelectScreen
Test: SelectScreen Z'LYTE
Format: biochemical
Outline: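 Percent values come from Thermo SelectScreen profiling of NU5455, combining activity and binding assays. CSF1R was run in Z'LYTE format at Km app ATP, and CAMK1 in Adapta format with ATP listed at 10.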

T1 sequence (P29322 28-1005): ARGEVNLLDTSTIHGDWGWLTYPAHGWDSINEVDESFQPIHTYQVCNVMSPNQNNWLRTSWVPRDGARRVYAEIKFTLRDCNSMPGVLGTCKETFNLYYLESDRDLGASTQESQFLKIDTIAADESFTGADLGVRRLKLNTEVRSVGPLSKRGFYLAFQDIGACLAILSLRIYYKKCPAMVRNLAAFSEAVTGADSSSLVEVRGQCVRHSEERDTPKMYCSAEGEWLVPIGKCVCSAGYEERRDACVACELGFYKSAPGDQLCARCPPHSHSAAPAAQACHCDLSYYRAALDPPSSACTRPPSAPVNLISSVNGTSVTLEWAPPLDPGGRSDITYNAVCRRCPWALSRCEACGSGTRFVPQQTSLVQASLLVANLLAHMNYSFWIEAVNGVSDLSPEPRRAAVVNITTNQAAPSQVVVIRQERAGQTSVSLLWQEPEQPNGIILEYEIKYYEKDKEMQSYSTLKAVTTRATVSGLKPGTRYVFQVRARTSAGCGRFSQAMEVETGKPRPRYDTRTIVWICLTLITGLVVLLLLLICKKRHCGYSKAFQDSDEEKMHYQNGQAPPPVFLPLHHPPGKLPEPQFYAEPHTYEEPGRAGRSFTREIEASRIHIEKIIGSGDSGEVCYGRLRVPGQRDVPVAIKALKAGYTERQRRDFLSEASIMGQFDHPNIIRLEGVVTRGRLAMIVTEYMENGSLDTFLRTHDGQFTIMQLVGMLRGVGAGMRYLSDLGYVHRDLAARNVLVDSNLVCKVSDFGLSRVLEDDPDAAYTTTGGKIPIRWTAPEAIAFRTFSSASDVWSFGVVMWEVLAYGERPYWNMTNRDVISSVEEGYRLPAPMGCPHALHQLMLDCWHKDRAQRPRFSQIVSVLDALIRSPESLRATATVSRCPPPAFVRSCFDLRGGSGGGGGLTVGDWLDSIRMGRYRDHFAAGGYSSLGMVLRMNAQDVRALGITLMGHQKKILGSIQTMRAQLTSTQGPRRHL

CN(C(=O)CN1CCOCC1)c1ccc2sc3c(-c4cccc5c(=O)cc(N6CC7CCC(C6)O7)oc45)cccc3c2c1 [NU5455]
inhibition at 1 µM: -13.8%
